Positions count from the first letter of the chain named. Like-named read-outs stand apart in the source and are kept apart here.
Columns and labels:
[1] = system: U87MG pLVX-IDH2 R140Q-neo cells; experiment: U87MG pLVX-IDH2 R140Q-neo cell based assay, 2-HG in media by LC-MS at 48 hours
How it was run: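 U87MG cells stably expressing IDH2 R140Q were seeded overnight, then exposed to compound at 0.2% final DMSO at 37 °C, 5% CO2. 2-HG in the medium was quantified by LC-MS at 48 h. Growth inhibition was read by CellTiter-Glo luminescence at 72 h.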

IDH2 R172K = molecular target: T1, IDH2 R172K (Homo sapiens, UniProt P48735, R172K); experiment: IDH2 R172K enzymatic assay (NADPH cofactor depletion, diaphorase/resazurin readout); format: biochemical; settings: read-out: Enz R172K
T1 sequence (P48735 40-452 R172K): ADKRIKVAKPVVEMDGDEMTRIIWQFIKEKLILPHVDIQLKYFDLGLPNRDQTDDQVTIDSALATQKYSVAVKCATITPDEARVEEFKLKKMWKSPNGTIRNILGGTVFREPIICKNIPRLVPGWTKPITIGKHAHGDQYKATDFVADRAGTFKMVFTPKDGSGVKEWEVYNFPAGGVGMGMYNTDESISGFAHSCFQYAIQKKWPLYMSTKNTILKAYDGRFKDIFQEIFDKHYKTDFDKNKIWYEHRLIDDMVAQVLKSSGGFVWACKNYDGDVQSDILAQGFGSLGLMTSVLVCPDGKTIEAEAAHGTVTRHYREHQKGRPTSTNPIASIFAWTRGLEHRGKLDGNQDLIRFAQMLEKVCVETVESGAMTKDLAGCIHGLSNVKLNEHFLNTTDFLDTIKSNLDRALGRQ
How it was run: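 Compound was preincubated with IDH2 R172K for 1 h at room temperature, then the reaction was started with substrate mix containing 50 μM NADPH and 6.3 mM α-KG. After another 1 h at room temperature, stop mix with diaphorase and resazurin consumed the remaining NADPH, and resorufin fluorescence was read.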

IDH2 R140Q = molecular target: T2, IDH2 R140Q (Homo sapiens, UniProt P48735, R140Q); experiment: IDH2 R140Q enzymatic assay (cofactor depletion, similar format); format: biochemical; settings: read-out: Enz R140Q
T2 sequence (P48735 40-452 R140Q): T1 sequence (P48735 40-452 R172K) with R101Q, K133R

SMILES | IC50 ([1]; Homo sapiens, U-87 MG) | IC50 (IDH2 R172K) | IC50 (IDH2 R140Q) | IC50 [1]
CC1(Nc2nc(Nc3ccnc(C(F)(F)F)c3)nc(-c3cccc(C(F)(F)F)n3)n2)COC1 [Compound 549, N-(3-Methyl-oxetan-3-yl)-6-(6-trifluoromethyl-pyridin-2-yl)-N′-(2-trifluoromethyl-pyridin-4-yl)-[1,3,5]triazine-2,4-diamine] | < 0.1 µM | < 0.1 µM | 0.1 to 1 µM | 
CC1(CNc2nc(Nc3ccnc(C(F)(F)F)c3)nc(-c3cccc(C(F)(F)F)n3)n2)COC1 [Compound 550, N-(3-Methyl-oxetan-3-ylmethyl)-6-(6-trifluoromethyl-pyridin-2-yl)-N′-(2-trifluoromethyl-pyridin-4-yl)-[1,3,5]triazine-2,4-diamine] | < 0.1 µM | < 0.1 µM | 0.1 to 1 µM | 
CC(C)Nc1nc(Nc2ccnc(C(F)F)c2)nc(-c2cccc(C(F)(F)F)n2)n1 [Compound 551, N-(2-Difluoromethyl-pyridin-4-yl)-N′-isopropyl-6-(6-trifluoromethyl-pyridin-2-yl)-[1,3,5]triazine-2,4-diamine] | < 0.1 µM | < 0.1 µM | 0.1 to 1 µM | 
CC(CO)CNc1nc(Nc2ccnc(C(F)(F)F)c2)nc(-c2cccc(C(F)(F)F)n2)n1 (stereo not drawn) [Compound 552, 2-Methyl-3-[4-(6-trifluoromethyl-pyridin-2-yl)-6-(2-trifluoromethyl-pyridin-4-ylamino)-[1,3,5]triazin-2-ylamino]-propan-1-ol] | < 0.1 µM | 0.1 to 1 µM | 0.1 to 1 µM | 
CCCn1cc(Nc2nc(NC(C)C)nc(-c3cccc(C(F)(F)F)n3)n2)cn1 [Compound 555, N-Isopropyl-N′-(1-propyl-1H-pyrazol-4-yl)-6-(6-trifluoromethyl-pyridin-2-yl)-[1,3,5]triazine-2,4-diamine] | < 0.1 µM | 1 to 10 µM | 0.1 to 1 µM | 
FC(F)(F)c1cc(Nc2nc(NC3CC4CCC3O4)nc(-c3cccc(C(F)(F)F)n3)n2)ccn1 (stereo not drawn) [Compound 556, N-(7-Oxa-bicyclo[2.2.1]hept-2-yl)-6-(6-trifluoromethyl-pyridin-2-yl)-N′-(2-trifluoromethyl-pyridin-4-yl)-[1,3,5]triazine-2,4-diamine] | < 0.1 µM | < 0.1 µM | 0.1 to 1 µM | 
COC1(c2cc(Nc3nc(NC(C)C)nc(-c4cccc(C(F)(F)F)n4)n3)ccn2)CC1 [Compound 559, N-Isopropyl-N′-[2-(1-methoxy-cyclopropyl)-pyridin-4-yl]-6-(6-trifluoromethyl-pyridin-2-yl)-[1,3,5]triazine-2,4-diamine] | < 0.1 µM | < 0.1 µM | 0.1 to 1 µM | 
CC(C)(O)CNc1nc(Nc2cc(F)cc(F)c2)nc(-c2cccc(C(C)(F)F)n2)n1 [Compound 560, 1-[4-[6-(1,1-Difluoro-ethyl)-pyridin-2-yl]-6-(3,5-difluoro-phenylamino)-[1,3,5]triazin-2-ylamino]-2-methyl-propan-2-ol] | < 0.1 µM | < 0.1 µM | 0.1 to 1 µM | 
CC(C)Nc1nc(Nc2cc(Cl)cc(S(C)(=O)=O)c2)nc(-c2cccc(C(F)(F)F)n2)n1 [Compound 561, N-(3-Chloro-5-methanesulfonyl-phenyl)-N′-isopropyl-6-(6-trifluoromethyl-pyridin-2-yl)-[1,3,5]triazine-2,4-diamine] | < 0.1 µM | < 0.1 µM | 0.1 to 1 µM | 
CC(C)(CO)Nc1nc(Nc2ccnc(C(F)(F)F)c2)nc(-c2cccc(C(F)(F)F)n2)n1 [Compound 562, 2-Methyl-2-[4-(6-trifluoromethyl-pyridin-2-yl)-6-(2-trifluoromethyl-pyridin-4-ylamino)-[1,3,5]triazin-2-ylamino]-propan-1-ol] | < 0.1 µM | < 0.1 µM | 0.1 to 1 µM | 
CC(C)Nc1nc(Nc2ccnc(C3CC3)c2)nc(-c2cccc(C(F)(F)F)n2)n1 [Compound 563, N-(2-Cyclopropyl-pyridin-4-yl)-N′-isopropyl-6-(6-trifluoromethyl-pyridin-2-yl)-[1,3,5]triazine-2,4-diamine] | < 0.1 µM | < 0.1 µM | 0.1 to 1 µM | 
CC(C)(C)Nc1nc(Nc2ccnc(C3CC3)c2)nc(-c2cccc(C(F)(F)F)n2)n1 [Compound 564, N-tert-Butyl-N′-(2-cyclopropyl-pyridin-4-yl)-6-(6-trifluoromethyl-pyridin-2-yl)-[1,3,5]triazine-2,4-diamine] | < 0.1 µM | < 0.1 µM | 0.1 to 1 µM | 
CC1(Nc2nc(Nc3ccnc(C4CC4)c3)nc(-c3cccc(C(F)(F)F)n3)n2)CC1 [Compound 565, N-(2-Cyclopropyl-pyridin-4-yl)-N′-(1-methyl-cyclopropyl)-6-(6-trifluoromethyl-pyridin-2-yl)-[1,3,5]triazine-2,4-diamine] | < 0.1 µM | < 0.1 µM | 0.1 to 1 µM | 
CC(C)(C)Nc1nc(Nc2ccnc(C(C)(F)F)c2)nc(-c2cccc(C(F)(F)F)n2)n1 [Compound 567, N-tert-Butyl-N′-[2-(1,1-difluoro-ethyl)-pyridin-4-yl]-6-(6-trifluoromethyl-pyridin-2-yl)-[1,3,5]triazine-2,4-diamine] | < 0.1 µM | < 0.1 µM | 0.1 to 1 µM | 
OC1CC1Nc1nc(Nc2ccnc(C(F)(F)F)c2)nc(-c2cccc(C(F)(F)F)n2)n1 (stereo not drawn) [Compound 568, 2-[4-(6-Trifluoromethyl-pyridin-2-yl)-6-(2-trifluoromethyl-pyridin-4-ylamino)-[1,3,5]triazin-2-ylamino]-cyclopropanol] | < 0.1 µM | 0.1 to 1 µM | 0.1 to 1 µM | 
OC1CC1Nc1nc(Nc2ccnc(C(F)(F)F)c2)nc(-c2cccc(C(F)(F)F)n2)n1 (stereo not drawn) [Compound 569, 2-[4-(6-Trifluoromethyl-pyridin-2-yl)-6-(2-trifluoromethyl-pyridin-4-ylamino)-[1,3,5]triazin-2-ylamino]-cyclopropanol] |  | 0.1 to 1 µM | 0.1 to 1 µM | 0.1 to 1 µM
CC(C)Nc1nc(Nc2cc(F)cc(S(C)(=O)=O)c2)nc(-c2cccc(C(F)(F)F)n2)n1 [Compound 570, N2-(3-fluoro-5-(methylsulfonyl)phenyl)-N4-isopropyl-6-(6-(trifluoromethyl)pyridin-2-yl)-1,3,5-triazine-2,4-diamine] | < 0.1 µM | < 0.1 µM | 0.1 to 1 µM | 
CC(C)CNc1nc(Nc2cccc(S(C)(=O)=O)c2)nc(-c2cccc(C(F)(F)F)n2)n1 [Compound 571, N2-isobutyl-N4-(3-(methylsulfonyl)phenyl)-6-(6-(trifluoromethyl)pyridin-2-yl)-1,3,5-triazine-2,4-diamine] | < 0.1 µM | 0.1 to 1 µM | 0.1 to 1 µM | 
CC(C)Nc1nc(Nc2ccnc(Cl)c2)nc(-c2cccc(C(F)(F)F)n2)n1 [Compound 572, N2-(2-chloropyridin-4-yl)-N4-isopropyl-6-(6-(trifluoromethyl)pyridin-2-yl)-1,3,5-triazine-2,4-diamine] | < 0.1 µM | 0.1 to 1 µM | 0.1 to 1 µM | 
CCC(=O)c1cc(Nc2nc(NC(C)C)nc(-c3cccc(C(F)(F)F)n3)n2)ccn1 [Compound 574, 1-{4-[4-Isopropylamino-6-(6-trifluoromethyl-pyridin-2-yl)-[1,3,5]triazin-2-ylamino]-pyridin-2-yl}-propan-1-one] | < 0.1 µM | < 0.1 µM | 0.1 to 1 µM | 
CC(C)Nc1nc(Nc2ccnc(C(C)(F)F)c2)nc(-c2cccc(C(C)(F)F)n2)n1 [Compound 576, 6-[6-(1,1-Difluoro-ethyl)-pyridin-2-yl]-N-[2-(1,1-difluoro-ethyl)-pyridin-4-yl]-N′-isopropyl-[1,3,5]triazine-2,4-diamine] | < 0.1 µM | 0.1 to 1 µM | 0.1 to 1 µM | 
COC(=O)N1CCC(Nc2nc(Nc3ccnc(C(F)(F)F)c3)nc(-c3cccc(C(F)(F)F)n3)n2)CC1 [Compound 577, 4-[4-(6-Trifluoromethyl-pyridin-2-yl)-6-(2-trifluoromethyl-pyridin-4-ylamino)-[1,3,5]triazin-2-ylamino]-piperidine-1-carboxylic acid methyl ester] | < 0.1 µM | 0.1 to 1 µM | 1 to 10 µM | 
CC(C)Nc1nc(Nc2ccnc(C3(C)CC3)c2)nc(-c2cccc(C(F)(F)F)n2)n1 [Compound 581, N-Isopropyl-N′-[2-(1-methyl-cyclopropyl)-pyridin-4-yl]-6-(6-trifluoromethyl-pyridin-2-yl)-[1,3,5]triazine-2,4-diamine] | < 0.1 µM | < 0.1 µM | 0.1 to 1 µM | 

Source: US9512107B2, “Therapeutically active compositions and their methods of use” (Agios Pharmaceuticals, Inc., priority 2012, dated 2016)
